In ChEMBL document CHEMBL1132661, “Synthesis and preliminary biological evaluation of new alpha-amino amide anticonvulsants incorporating a dextromethorphan moiety” (Bioorg Med Chem Lett, 1999):

Tests used:
[1] = molecular target: T1, Sodium channel alpha subunits; brain (Types I, II, III) (Rattus norvegicus, UniProt P04775+P04774+P08104); assay: Binding of [3H]saxitoxin (STX) to rat brain sodium channel
Mus musculus [2] = assay: Psychomotor side-effect in mice by rotarod test by intraperitoneal administration at 60 mins; type: functional; conditions: ip, 1 h
Mus musculus [3] = assay: Anticonvulsant activity in mice by peroral administration measured at 60 mins before maximum electroshock seizure induction; type: functional; conditions: po
Mus musculus [4] = assay: Anticonvulsant activity in mice by intraperitoneal administration measured at 30 mins before maximum electroshock seizure induction; type: functional; conditions: ip
[5] = molecular target: T1, Sodium channel alpha subunits; brain (Types I, II, III); assay: Binding of [3H]batrachotoxin (BTX) to rat brain sodium channel
[6] = Therapeutic index TI (ED50 rotorod/MES) of the compound; conditions: mouse; read-out: TI
[7] = Significant mortality was observed in mice caused by the compound; type: ADME; conditions: mouse, in vivo

Question: Which IC50 [1] does the source give for `C[C@H](C(N)=O)N1CCC23CCCCC2[C@@H]1Cc1ccc(OCc2cccc(F)c2)cc13` (stereo partly specified) here?
Answer: > 300 µM

Question: What about the ED50 (Mus musculus [2]) of the same compound?
Answer: 176 mg/kg

Question: What about the ED50 (Mus musculus [3]) of the same compound?
Answer: 50.8 mg/kg

Question: And the ED50 (Mus musculus [4])?
Answer: 18.1 mg/kg

Question: What about the IC50 [5] of the same compound?
Answer: 2.6 µM

Question: What about the selectivity ratio [6] of the same compound?
Answer: 10

Question: With `COc1ccc2c(c1)C13CCCCC1C(C2)N(C)CC3` (stereo not drawn) [RACEMETHORPHAN] as the compound, how does the LD50 [7] read?
Answer: 234 mg/kg

Question: And the IC50 [1]?
Answer: > 300 µM

Question: What about the ED50 (Mus musculus [3]) of the same compound?
Answer: 12.9 mg/kg

Question: And the ED50 (Mus musculus [4])?
Answer: 10.1 mg/kg

Question: And the IC50 [5]?
Answer: 1.3 µM

Question: For `CS(=O)(=O)O.C[C@H](NCc1ccc(OCc2cccc(F)c2)cc1)C(N)=O` [SAFINAMIDE MESYLATE], which IC50 [1] is on record?
Answer: > 300 µM

Question: And the ED50 (Mus musculus [2])?
Answer: 626 mg/kg

Question: And the ED50 (Mus musculus [3])?
Answer: 8 mg/kg

Question: What about the ED50 (Mus musculus [4]) of the same compound?
Answer: 6.9 mg/kg

Question: And the selectivity ratio [6]?
Answer: 78

Question: With `CNC(=O)[C@@H](C)N1CCC23CCCCC2[C@@H]1Cc1ccc(OCc2cccc(F)c2)cc13` (stereo partly specified) as the compound, how does the IC50 [1] read?
Answer: > 300 µM

Question: And the ED50 (Mus musculus [2])?
Answer: 152 mg/kg

Question: And the ED50 (Mus musculus [4])?
Answer: 41.6 mg/kg

Question: And the IC50 [5]?
Answer: 5.3 µM

Question: And the selectivity ratio [6]?
Answer: 4
